Holding throughout (parameters): species or system Lederbergia lenta
A short description of test [1]: Compound was evaluated for the inhibition of SBL-M222C-SMe enzyme.
A short description of test [2]: Compound was evaluated for the inhibition of SBL-M222C-SEtSO3- enzyme.
Test [3] in a line: Compound was evaluated for the inhibition of SBL-WT enzyme.
Test [4] can be described thus: Compound was evaluated for the inhibition of SBL-M222C enzyme.
Test [5] can be described thus: Compound was evaluated for the inhibition of SBL-M222C-SEtNH3+ enzyme.

For the compound `Nc1cccc(B(O)O)c1`, the Ki in test [1] amounted to 139 µM; in test [2], 176 µM; in test [3] it was 150 µM; in test [4], 204 µM; in test [5], 127 µM.

In the case of `OB(O)c1cccc(-c2ccccc2)c1`, the Ki was determined as 153 µM in test [1]; 25 µM in test [2]; 327 µM in test [3]; 31 µM in test [4]; 40 µM in test [5].

On to `OB(O)c1ccc(Cl)cc1Cl`, for which the Ki in test [1] worked out at 3.8 µM; in test [2] it was 11 µM; in test [3] it was 9.2 µM; in test [4], 18 µM; in test [5], 8.9 µM.

In the case of `OB(O)c1ccccc1` [PHENYLBORONIC ACID], the inhibition constant (Ki) in test [1] was determined as 123 µM; in test [2] it was 146 µM; in test [3], 141 µM; in test [4] it was 155 µM; in test [5], 108 µM.

Take `OB(O)c1ccc(Br)cc1`: the Ki is 11.2 µM in test [1]; 15.6 µM in test [2]; 23 µM in test [3]; 23 µM in test [4]; 10.5 µM in test [5].

The term Ki denotes the dissociation constant of the complex between target and ligand, obtained from inhibition or displacement. Higher therefore signals a looser hold on the target.

Source of the values: ChEMBL document CHEMBL1129207, “Altering the specificity of subtilisin B. Lentus by combining site-directed mutagenesis and chemical modification” (Bioorg Med Chem Lett, 1996).
